From ChEMBL document CHEMBL3885881, “DrugMatrix”

Organism: Rattus norvegicus
Assay: DrugMatrix - Regimen: Daily Repeat
Type: toxicity, organism-based, Sprague-Dawley
Design: regimen Daily Repeat, gender Male, age 6-8 weeks
Conditions: in vivo, po, route oral GAVAGE, […]; for ABSOLUTE BASOPHIL / ABSOLUTE EOSINOPHIL / ABSOLUTE LYMPHOCYTE / ABSOLUTE MONOCYTE / ABSOLUTE SEGMENTED NEUTROPHIL / BASOPHIL / EOSINOPHIL / ERYTHROCYTE COUNT / HEMATOCRIT / HEMOGLOBIN / LEUKOCYTE COUNT / LYMPHOCYTE / MEAN CORPUSCULAR HEMOGLOBIN / MEAN CORPUSCULAR HEMOGLOBIN CONCENTRATION / MEAN CORPUSCULAR VOLUME / MONOCYTE / NEUTROPHIL / NUCLEATED RED BLOOD CELLS / PLATELET COUNT: tissue Blood; for ALANINE AMINOTRANSFERASE / ALBUMIN / ALKALINE PHOSPHATASE / ASPARTATE AMINOTRANSFERASE / BLOOD UREA NITROGEN / CARBON DIOXIDE / CHLORIDE / CHOLESTEROL / CREATINE PHOSPHOKINASE / CREATININE / GLUCOSE / LACTATE DEHYDROGENASE / LIPASE / PHOSPHORUS / POTASSIUM / SODIUM / TOTAL BILIRUBIN / TOTAL PROTEIN / URIC ACID: tissue Plasma
[1] = 0 mg/kg, 72 h, dose level Control, time 3 day
[2] = 0 mg/kg, 120 h, dose level Control, time 5 day
[3] = 50 mg/kg, 72 h, dose level Low, time 3 day

COC(=O)Nc1nc2ccc(C(=O)c3ccccc3)cc2[nH]1 [MEBENDAZOLE]
ABSOLUTE BASOPHIL [1]: 0 CELLS/uL
ABSOLUTE EOSINOPHIL [1]: 0 CELLS/uL
ABSOLUTE LYMPHOCYTE [1]: 9244.83 CELLS/uL
ABSOLUTE MONOCYTE [1]: 102 CELLS/uL
ABSOLUTE SEGMENTED NEUTROPHIL [1]: 869.83 CELLS/uL
BASOPHIL [1]: 0%
EOSINOPHIL [1]: 0%
ERYTHROCYTE COUNT [1]: 5.43 x10E6/uL
HEMATOCRIT [1]: 34.03%
HEMOGLOBIN [1]: 13.27 G/DL
LEUKOCYTE COUNT [1]: 10.22 x10E3/uL
LYMPHOCYTE [1]: 90.33%
MEAN CORPUSCULAR HEMOGLOBIN [1]: 24.48 pg
MEAN CORPUSCULAR HEMOGLOBIN CONCENTRATION [1]: 39.03 G/DL
MEAN CORPUSCULAR VOLUME [1]: 62.75 fL
MONOCYTE [1]: 1%
NEUTROPHIL [1]: 8.67%
NUCLEATED RED BLOOD CELLS [1]: 0.17 /100WBC
PLATELET COUNT [1]: 989 x10E3/uL
ALANINE AMINOTRANSFERASE [1]: 77 u/L
ALBUMIN [1]: 3.97 G/DL
ALKALINE PHOSPHATASE [1]: 464.83 u/L
ASPARTATE AMINOTRANSFERASE [1]: 89.83 u/L
BLOOD UREA NITROGEN [1]: 12.17 mg/dL
CARBON DIOXIDE [1]: 34.17 mmol/L
CHLORIDE [1]: 98.33 MEQ/L
CHOLESTEROL [1]: 75.17 mg/dL
CREATINE PHOSPHOKINASE [1]: 367.67 u/L
CREATININE [1]: 0.16 mg/dL
GLUCOSE [1]: 142.67 mg/dL
LACTATE DEHYDROGENASE [1]: 139.33 u/L
LIPASE [1]: 9.5 u/L
PHOSPHORUS [1]: 10.85 mg/dL
POTASSIUM [1]: 6.38 MEQ/L
SODIUM [1]: 143.2 MEQ/L
TOTAL BILIRUBIN [1]: 0.2 mg/dL
TOTAL PROTEIN [1]: 5.77 G/DL
URIC ACID [1]: 0.7 mg/dL
ABSOLUTE BASOPHIL [2]: 0 CELLS/uL
ABSOLUTE EOSINOPHIL [2]: 0 CELLS/uL
ABSOLUTE LYMPHOCYTE [2]: 8295.33 CELLS/uL
ABSOLUTE MONOCYTE [2]: 84.67 CELLS/uL
ABSOLUTE SEGMENTED NEUTROPHIL [2]: 970 CELLS/uL
BASOPHIL [2]: 0%
EOSINOPHIL [2]: 0%
ERYTHROCYTE COUNT [2]: 5.74 x10E6/uL
HEMATOCRIT [2]: 36.22%
HEMOGLOBIN [2]: 13.85 G/DL
LEUKOCYTE COUNT [2]: 9.35 x10E3/uL
LYMPHOCYTE [2]: 88.67%
MEAN CORPUSCULAR HEMOGLOBIN [2]: 24.13 pg
MEAN CORPUSCULAR HEMOGLOBIN CONCENTRATION [2]: 38.25 G/DL
MEAN CORPUSCULAR VOLUME [2]: 63.08 fL
MONOCYTE [2]: 1%
NEUTROPHIL [2]: 10.33%
NUCLEATED RED BLOOD CELLS [2]: 0.17 /100WBC
PLATELET COUNT [2]: 883.83 x10E3/uL
ALANINE AMINOTRANSFERASE [2]: 64.5 u/L
ALBUMIN [2]: 4.12 G/DL
ALKALINE PHOSPHATASE [2]: 425.67 u/L
ASPARTATE AMINOTRANSFERASE [2]: 88.5 u/L
BLOOD UREA NITROGEN [2]: 14.17 mg/dL
CARBON DIOXIDE [2]: 30.5 mmol/L
CHLORIDE [2]: 100.33 MEQ/L
CHOLESTEROL [2]: 55.33 mg/dL
CREATINE PHOSPHOKINASE [2]: 287.17 u/L
CREATININE [2]: 0.2 mg/dL
GLUCOSE [2]: 162.83 mg/dL
LACTATE DEHYDROGENASE [2]: 111.33 u/L
LIPASE [2]: 10.5 u/L
PHOSPHORUS [2]: 10.32 mg/dL
POTASSIUM [2]: 5.13 MEQ/L
SODIUM [2]: 143.93 MEQ/L
TOTAL BILIRUBIN [2]: 0.17 mg/dL
TOTAL PROTEIN [2]: 5.9 G/DL
URIC ACID [2]: 0.77 mg/dL
ABSOLUTE BASOPHIL [3]: 0 CELLS/uL
ABSOLUTE EOSINOPHIL [3]: 0 CELLS/uL
ABSOLUTE LYMPHOCYTE [3]: 11176.67 CELLS/uL
ABSOLUTE MONOCYTE [3]: 118.33 CELLS/uL
ABSOLUTE SEGMENTED NEUTROPHIL [3]: 1305 CELLS/uL
BASOPHIL [3]: 0%
EOSINOPHIL [3]: 0%
ERYTHROCYTE COUNT [3]: 5.06 x10E6/uL
HEMATOCRIT [3]: 32%
HEMOGLOBIN [3]: 12.6 G/DL
LEUKOCYTE COUNT [3]: 12.6 x10E3/uL
LYMPHOCYTE [3]: 89.33%
MEAN CORPUSCULAR HEMOGLOBIN [3]: 24.93 pg
MEAN CORPUSCULAR HEMOGLOBIN CONCENTRATION [3]: 39.43 G/DL
MEAN CORPUSCULAR VOLUME [3]: 63.27 fL
MONOCYTE [3]: 1%
NEUTROPHIL [3]: 9.67%
NUCLEATED RED BLOOD CELLS [3]: 0 /100WBC
PLATELET COUNT [3]: 983 x10E3/uL
ALANINE AMINOTRANSFERASE [3]: 78 u/L
ALBUMIN [3]: 3.87 G/DL
ALKALINE PHOSPHATASE [3]: 423.67 u/L
ASPARTATE AMINOTRANSFERASE [3]: 86.33 u/L
BLOOD UREA NITROGEN [3]: 12.33 mg/dL
CARBON DIOXIDE [3]: 32 mmol/L
CHLORIDE [3]: 100 MEQ/L
CHOLESTEROL [3]: 74.67 mg/dL
CREATINE PHOSPHOKINASE [3]: 274.33 u/L
CREATININE [3]: 0.25 mg/dL
GLUCOSE [3]: 142.67 mg/dL
LACTATE DEHYDROGENASE [3]: 145 u/L
LIPASE [3]: 11 u/L
PHOSPHORUS [3]: 11.2 mg/dL
POTASSIUM [3]: 5.98 MEQ/L
SODIUM [3]: 144.33 MEQ/L
TOTAL BILIRUBIN [3]: 0.17 mg/dL
TOTAL PROTEIN [3]: 5.53 G/DL
URIC ACID [3]: 0.77 mg/dL
